The test addresses T1, hmGluR4 (Homo sapiens, UniProt Q14833).
T1 construct: host or cells: HEK293T
Description: HEK-293 mGluR4 cells cAMP assay with EC20 L-glutamate (HTRF). Type of test: cell-based. The note with it: positive allosteric activity at EC20 L-glutamate, 10 μM forskolin, HEK293T mGluR4 cells, read-out: hrmGluR4/HEK293T-hmGluR4 (EC50). How it is done:
HEK-293 mGluR4 Cells cAMP Assay with EC20 L-Glutamate
Using mGluR4 suspension cell format, 10 μM Forskolin (final conc.) used to induce the production of cAMP.
Test the positive allosteric activity of the compounds of the invention at EC20 (2.3 μM for mGluR4 and 4.3 μM for mGluR6) L-Glutamate,
cAMP dymanic2 kit is intended for the direct quantitative determination of cAMP and its principle is based on HTRF technology.
Cell Preparation: split cells at 80%-90% confluence. The following day, rinse the cells with DMEM without GlutaMax and change to Glutamine Starvation Media. Incubate overnight.
Prepare compound plate: Perform compound serial dilution (uses Matrix 4341 plate), using the Bravo liquid handling platform protocol (compound serial dilution) which adds DMSO to columns 1-24 (except cols. 3 and 13). Serial dilute compounds located in columns 3 and 13 at a 1:3 ratio; 10 points (10 ul of 3 mM compound into 20 ul DMSO). Use the Bravo liquid handling platform to transfer 1 ul from the serial dilution plate into Matrix 4314 plate to create stamp plates.
Dilute 20 mM Forskolin (in DMSO) stock solution in HBSS buffer to make a 20 uM solution (forskolin buffer; 2× solution). To the forskolin buffer, add glutamate to a concentration of 8 uM (compound dilution buffer; 2×EC20 glutamate and forskolin).
Using a multidrop, add 50 ul/well of compound dilution buffer to columns 1-22 of the 2 ul compound stamp plate. Columns 23 and 24 receive forskolin buffer containing 400 uM glutamate (EC100 glutamate; 2× solution). Columns 1 and 2 receive compound dilution buffer containing EC20 glutamate, which is the basal control. Add a glutamate dose response to row P of compound plate. Prepare the dose response by serial diluting glutamate at a 1:3 ratio in forskolin buffer starting at 2 mM glutamate (2×). Dilute the glutamate 9 times and transfer to compound plate.
Harvest cells: Rinse cells with pre-warmed HBSS-10 mM HEPES (without Ca Mg) and dissociate the cells from the flask with versene. Centrifuge the cells, remove the supernatant and suspend in pre-warmed HBSS+10 mM Hepes. Count the cells and centrifuge. Remove the supernatant and suspend the cells in HBSS+Hepes (with Ca Mg) at a density of 400,000 cells/ml.
Dispense 5 ul from the diluted compound plate into Greiner low volume cell plate using the Bravo liquid handling platform. Using a Multidrop with the small tubing cassette, dispense 5 ul of cells (2000 cells/well) onto the compounds contained in the low volume plates. Incubate the cells at 37° C., 5% CO2 for 30 minutes in the incubator.
Prepare cAMP-d2 and anti-cAMP-Crytate according to the instructions for the two step assay (see Cisbio manual) and add 10 ul of the mixed reagent to each well of the assay plate using the Multidrop. Incubate at room temperature for 60 minutes and read on the Envision plate reader using the mGluR low volume cAMP HTRF 384 well protocol. The readout is the calculated fluorescence ratio ([…]*10000).
(cAMP levels reflect the balance of adenylyl cyclase and phosphodiesterase activity.)

Drawing on patent publication US9763938B2, “Substituted quinoxalines as positive allosteric modulators of mGluR4” (MERCK PATENT GMBH, priority 2013, dated 2017), this text covers EC50 for ten molecules.

pEC50: −log10 of the molar value.

T1 sequence (Q14833 33-912): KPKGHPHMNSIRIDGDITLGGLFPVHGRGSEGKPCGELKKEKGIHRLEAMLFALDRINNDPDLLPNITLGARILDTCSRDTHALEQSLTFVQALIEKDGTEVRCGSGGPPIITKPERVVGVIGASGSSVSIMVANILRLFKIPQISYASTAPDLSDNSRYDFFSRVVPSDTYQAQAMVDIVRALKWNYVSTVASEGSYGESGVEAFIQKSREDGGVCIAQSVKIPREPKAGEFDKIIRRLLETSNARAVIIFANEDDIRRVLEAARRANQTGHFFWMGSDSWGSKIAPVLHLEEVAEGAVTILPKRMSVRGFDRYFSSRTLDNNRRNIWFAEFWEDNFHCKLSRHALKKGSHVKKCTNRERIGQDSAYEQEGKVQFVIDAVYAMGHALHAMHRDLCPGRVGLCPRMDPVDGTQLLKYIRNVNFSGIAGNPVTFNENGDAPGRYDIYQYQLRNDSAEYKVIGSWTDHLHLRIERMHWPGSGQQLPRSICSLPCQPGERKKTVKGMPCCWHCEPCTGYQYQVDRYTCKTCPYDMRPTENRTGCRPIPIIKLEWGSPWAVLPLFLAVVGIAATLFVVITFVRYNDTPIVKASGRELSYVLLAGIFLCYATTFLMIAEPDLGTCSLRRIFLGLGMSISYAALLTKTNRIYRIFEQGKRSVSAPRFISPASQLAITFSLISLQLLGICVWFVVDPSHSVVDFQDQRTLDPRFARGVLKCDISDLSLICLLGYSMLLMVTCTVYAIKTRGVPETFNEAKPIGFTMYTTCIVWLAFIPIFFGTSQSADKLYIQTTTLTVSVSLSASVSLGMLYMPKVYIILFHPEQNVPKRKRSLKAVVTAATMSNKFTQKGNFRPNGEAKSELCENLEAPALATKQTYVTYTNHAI

As to `CC(=O)c1cccc2nc(-c3ccccc3)c(-c3ccccc3)nc12` [Compound 7, 1-(2,3-Diphenyl-quinoxalin-5-yl)-ethanone], the pEC50 is 5.00 to 6.00.

Consider `c1ccc(-c2nc3ccccc3nc2-c2cccc3cccnc23)cc1` [Compound 6, 2-Phenyl-3-quinolin-8-yl-quinoxaline], for which the pEC50 is 5.00 to 6.00.

For the molecule `Cc1cccc2nc(-c3ccccc3)c(-c3ccccc3)nc12` [Compound 5, 5-Methyl-2,3-diphenyl-quinoxaline], the pEC50 was 5.00 to 6.00.

Consider `Fc1ccccc1-c1nc2ccccc2nc1-c1ccccc1F` [Compound 9, 2,3-Bis-(2-fluoro-phenyl)-quinoxaline], for which the pEC50 was 5.00 to 6.00.

As for `Fc1ccc(-c2nc3ccccc3nc2-c2cccc3[nH]ccc23)cc1F` [Compound 4, 2-(3,4-Difluoro-phenyl)-3-(1H-indol-4-yl)-quinoxaline], the pEC50 was 5.00 to 6.00.

Take `Oc1ccc(-c2nc3ccccc3nc2-c2ccccc2)cc1` [Compound 2, 4-(3-Phenyl-quinoxalin-2-yl)-phenol]: the pEC50 is more than 6.00.

In the case of `c1ccc(-c2nc3ccccc3nc2-c2ccnc3ccccc23)cc1` [Compound 1, 2-Phenyl-3-quinolin-4-yl-quinoxaline], the pEC50 is more than 6.00.

For `c1ccc(-c2nc3c(nc2-c2ccccc2)CCCC3)cc1` [Compound 8, 2,3-Diphenyl-5,6,7,8-tetrahydro-quinoxaline], the pEC50 is 5.00 to 6.00.

`OC1CCN(c2nc3ccccc3nc2-c2ccccc2)CC1` [Compound 3, 1-(3-Phenyl-quinoxalin-2-yl)-piperidin-4-ol]: the pEC50 is more than 6.00.

For the molecule `Fc1ccc(-c2nc3ccccc3nc2-c2ccccc2)cc1F` [Compound 10, 2-(3,4-Difluoro-phenyl)-3-phenyl-quinoxaline], the pEC50 is 5.00 to 6.00.
